Laboratory results reported in ChEMBL document CHEMBL3751764, “Synthesis and in vitro antiproliferative activity of novel pyrazolo[3,4-d]pyrimidine derivatives” (Medchemcomm, 2015).
Activity calls are given as the source filed them. No cut-off for these calls is given here.

Experiments:
MCF7 = assay: Cytotoxicity against human MCF7 cells after 72 hrs by SRB assay; format: functional, cell-based; settings: MCF7, 72 h
[1] = target: T1, Vascular endothelial growth factor receptor 2 (Homo sapiens, UniProt P35968); assay: Inhibition of human VEGFR2 at 10 uM after 20 to 40 mins by liquid scintillation counting analysis in presence of […]; parameters: scale not given: the % may be the effect or the level left
T1 sequence (P35968 whole entry): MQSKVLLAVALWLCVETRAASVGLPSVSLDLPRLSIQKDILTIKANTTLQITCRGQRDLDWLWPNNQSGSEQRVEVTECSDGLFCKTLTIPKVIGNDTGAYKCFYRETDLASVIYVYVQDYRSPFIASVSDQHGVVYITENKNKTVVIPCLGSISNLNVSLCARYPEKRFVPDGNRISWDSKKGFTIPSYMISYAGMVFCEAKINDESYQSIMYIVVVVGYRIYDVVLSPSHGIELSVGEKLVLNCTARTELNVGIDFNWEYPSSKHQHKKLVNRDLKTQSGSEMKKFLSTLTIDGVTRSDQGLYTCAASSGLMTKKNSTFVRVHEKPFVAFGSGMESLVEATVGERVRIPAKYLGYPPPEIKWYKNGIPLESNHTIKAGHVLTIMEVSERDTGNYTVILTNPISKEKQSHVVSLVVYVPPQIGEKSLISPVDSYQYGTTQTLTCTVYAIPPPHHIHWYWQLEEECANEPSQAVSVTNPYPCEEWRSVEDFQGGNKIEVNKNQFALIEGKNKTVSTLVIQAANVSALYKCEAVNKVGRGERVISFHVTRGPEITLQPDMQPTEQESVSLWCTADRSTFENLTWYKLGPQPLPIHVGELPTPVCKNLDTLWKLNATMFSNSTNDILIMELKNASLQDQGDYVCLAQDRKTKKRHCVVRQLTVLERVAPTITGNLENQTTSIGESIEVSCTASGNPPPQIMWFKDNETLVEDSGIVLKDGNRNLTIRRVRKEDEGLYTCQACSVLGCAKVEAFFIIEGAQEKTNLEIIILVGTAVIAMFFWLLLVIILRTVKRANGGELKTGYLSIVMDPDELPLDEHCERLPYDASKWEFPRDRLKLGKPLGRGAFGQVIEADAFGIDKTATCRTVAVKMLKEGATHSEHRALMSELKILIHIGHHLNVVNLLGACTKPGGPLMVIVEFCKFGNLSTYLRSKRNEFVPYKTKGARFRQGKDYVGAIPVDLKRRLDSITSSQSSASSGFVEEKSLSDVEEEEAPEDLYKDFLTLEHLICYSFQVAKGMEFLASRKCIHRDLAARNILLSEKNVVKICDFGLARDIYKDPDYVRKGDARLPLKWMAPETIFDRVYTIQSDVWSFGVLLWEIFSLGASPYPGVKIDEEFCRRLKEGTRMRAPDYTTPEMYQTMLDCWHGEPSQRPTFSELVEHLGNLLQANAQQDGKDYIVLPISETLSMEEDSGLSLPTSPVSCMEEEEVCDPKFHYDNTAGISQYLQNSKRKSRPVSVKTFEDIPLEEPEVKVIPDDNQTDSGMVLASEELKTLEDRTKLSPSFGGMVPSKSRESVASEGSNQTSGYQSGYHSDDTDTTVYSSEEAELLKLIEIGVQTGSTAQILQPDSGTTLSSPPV

[2] = target: Aurora kinase A (Homo sapiens) (UniProt O14965); assay: Inhibition of human aurora A at 10 uM after 20 to 40 mins by liquid scintillation counting analysis in presence of […]
[3] = target: T1, Vascular endothelial growth factor receptor 2; assay: Inhibition of VEGFR2 (unknown origin) using poly(Glu:Tyr) as substrate by ELISA-based method
[4] = target: Receptor-type tyrosine-protein kinase FLT3 (Homo sapiens, UniProt P36888); assay: Inhibition of Flt3 (unknown origin) using poly(Glu:Tyr) as substrate by ELISA-based method
Receptor-type tyrosine-protein kinase FLT3, sequence (P36888 whole entry): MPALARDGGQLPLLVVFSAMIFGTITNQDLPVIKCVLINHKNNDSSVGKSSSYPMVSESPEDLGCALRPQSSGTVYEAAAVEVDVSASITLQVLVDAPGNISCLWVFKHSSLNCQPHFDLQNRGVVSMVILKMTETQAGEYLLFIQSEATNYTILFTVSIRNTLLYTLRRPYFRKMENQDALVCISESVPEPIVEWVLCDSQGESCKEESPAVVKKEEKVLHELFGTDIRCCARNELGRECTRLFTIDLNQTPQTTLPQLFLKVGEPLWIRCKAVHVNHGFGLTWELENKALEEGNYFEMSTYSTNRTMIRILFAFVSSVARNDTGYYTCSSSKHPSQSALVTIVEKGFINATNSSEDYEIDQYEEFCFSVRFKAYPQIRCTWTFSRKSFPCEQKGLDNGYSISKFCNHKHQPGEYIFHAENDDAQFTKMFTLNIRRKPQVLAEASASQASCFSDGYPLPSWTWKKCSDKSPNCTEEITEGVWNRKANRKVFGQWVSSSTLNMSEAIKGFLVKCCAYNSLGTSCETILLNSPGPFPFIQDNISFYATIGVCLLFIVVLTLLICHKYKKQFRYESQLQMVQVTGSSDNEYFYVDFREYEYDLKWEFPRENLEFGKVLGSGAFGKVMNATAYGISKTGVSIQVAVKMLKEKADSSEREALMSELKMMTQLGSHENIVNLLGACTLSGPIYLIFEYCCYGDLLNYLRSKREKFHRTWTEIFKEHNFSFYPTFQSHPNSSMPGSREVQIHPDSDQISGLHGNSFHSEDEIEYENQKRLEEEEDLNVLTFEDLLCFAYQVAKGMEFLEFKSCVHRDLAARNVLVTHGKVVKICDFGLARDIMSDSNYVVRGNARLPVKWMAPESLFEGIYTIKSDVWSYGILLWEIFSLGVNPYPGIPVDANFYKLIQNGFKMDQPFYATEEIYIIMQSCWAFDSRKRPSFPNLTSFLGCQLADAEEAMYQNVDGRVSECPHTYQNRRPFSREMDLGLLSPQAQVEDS

[5] = target: Mast/stem cell growth factor receptor Kit (Homo sapiens, UniProt P10721); assay: Inhibition of N-terminal GST-tagged recombinant kit (unknown origin) using poly(Glu:Tyr) as substrate by ELISA-based method
Mast/stem cell growth factor receptor Kit, sequence (P10721 whole entry): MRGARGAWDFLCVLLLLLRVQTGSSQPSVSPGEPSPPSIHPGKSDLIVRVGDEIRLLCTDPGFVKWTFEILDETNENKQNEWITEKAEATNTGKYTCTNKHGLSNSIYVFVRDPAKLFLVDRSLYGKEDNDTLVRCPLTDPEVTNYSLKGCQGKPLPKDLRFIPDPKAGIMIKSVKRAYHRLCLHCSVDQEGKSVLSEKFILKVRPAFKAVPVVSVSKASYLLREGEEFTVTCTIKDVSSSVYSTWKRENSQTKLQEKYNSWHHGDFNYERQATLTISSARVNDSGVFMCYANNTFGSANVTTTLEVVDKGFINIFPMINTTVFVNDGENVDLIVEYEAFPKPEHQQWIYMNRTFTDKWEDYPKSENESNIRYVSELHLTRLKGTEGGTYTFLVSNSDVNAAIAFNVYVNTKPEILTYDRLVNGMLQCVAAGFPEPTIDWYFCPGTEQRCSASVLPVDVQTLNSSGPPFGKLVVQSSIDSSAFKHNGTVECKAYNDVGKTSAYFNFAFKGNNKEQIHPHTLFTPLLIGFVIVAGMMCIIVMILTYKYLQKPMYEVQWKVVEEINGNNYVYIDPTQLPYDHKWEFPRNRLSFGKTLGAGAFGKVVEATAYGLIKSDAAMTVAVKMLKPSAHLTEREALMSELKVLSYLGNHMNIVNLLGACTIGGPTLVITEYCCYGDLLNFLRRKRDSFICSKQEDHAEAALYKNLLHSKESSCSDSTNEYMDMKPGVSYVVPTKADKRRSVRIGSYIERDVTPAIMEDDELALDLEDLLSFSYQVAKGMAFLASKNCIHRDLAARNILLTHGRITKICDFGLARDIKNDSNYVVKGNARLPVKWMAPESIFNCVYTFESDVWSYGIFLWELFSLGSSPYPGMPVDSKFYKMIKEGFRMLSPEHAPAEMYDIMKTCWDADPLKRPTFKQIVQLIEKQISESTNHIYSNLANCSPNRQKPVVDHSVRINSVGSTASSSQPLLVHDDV

[6] = target: T1, Vascular endothelial growth factor receptor 2; assay: Inhibition of VEGFR2 (unknown origin) using poly(Glu,Ala,Tyr) (6:3:1) as substrate after 20 mins by ELISA
[7] = target: Epidermal growth factor receptor (Homo sapiens) (UniProt P00533); assay: Inhibition of human EGFR at 10 uM after 20 to 40 mins by liquid scintillation counting analysis in presence of […]
Epidermal growth factor receptor (Homo sapiens), sequence (P00533 whole entry): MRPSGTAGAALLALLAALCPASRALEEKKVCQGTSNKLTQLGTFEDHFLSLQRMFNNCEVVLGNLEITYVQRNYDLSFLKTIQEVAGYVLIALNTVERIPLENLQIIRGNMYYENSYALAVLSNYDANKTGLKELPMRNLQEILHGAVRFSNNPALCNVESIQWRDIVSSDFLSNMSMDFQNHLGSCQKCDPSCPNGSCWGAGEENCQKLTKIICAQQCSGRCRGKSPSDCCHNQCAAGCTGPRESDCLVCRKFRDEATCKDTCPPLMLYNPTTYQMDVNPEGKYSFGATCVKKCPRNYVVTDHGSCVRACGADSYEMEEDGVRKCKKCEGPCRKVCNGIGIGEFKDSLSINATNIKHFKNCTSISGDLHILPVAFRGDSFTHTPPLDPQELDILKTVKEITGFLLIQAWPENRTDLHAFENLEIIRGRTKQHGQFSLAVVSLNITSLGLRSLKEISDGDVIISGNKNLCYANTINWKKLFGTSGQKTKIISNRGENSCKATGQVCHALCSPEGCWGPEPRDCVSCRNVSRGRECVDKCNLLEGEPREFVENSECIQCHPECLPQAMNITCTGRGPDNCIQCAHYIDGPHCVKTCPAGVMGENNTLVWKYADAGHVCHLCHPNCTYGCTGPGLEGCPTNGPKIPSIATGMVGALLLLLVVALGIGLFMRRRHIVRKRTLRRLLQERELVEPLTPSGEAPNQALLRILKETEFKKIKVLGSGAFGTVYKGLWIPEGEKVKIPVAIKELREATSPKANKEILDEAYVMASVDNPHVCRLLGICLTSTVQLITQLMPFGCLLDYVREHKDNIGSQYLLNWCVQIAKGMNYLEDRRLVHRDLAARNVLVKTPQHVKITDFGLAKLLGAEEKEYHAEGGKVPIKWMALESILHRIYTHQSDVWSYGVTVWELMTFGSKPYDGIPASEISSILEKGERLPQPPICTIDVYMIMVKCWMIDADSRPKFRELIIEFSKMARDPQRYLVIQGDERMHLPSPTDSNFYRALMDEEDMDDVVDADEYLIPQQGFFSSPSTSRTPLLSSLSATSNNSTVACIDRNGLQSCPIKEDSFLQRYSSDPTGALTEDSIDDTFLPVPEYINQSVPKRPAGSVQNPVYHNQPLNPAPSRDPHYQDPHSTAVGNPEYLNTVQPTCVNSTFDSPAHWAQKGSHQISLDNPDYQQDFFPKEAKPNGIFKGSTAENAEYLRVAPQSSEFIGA

[8] = target: Cyclin-dependent kinase 1 (Homo sapiens, UniProt P06493); assay: Inhibition of CDK1 (unknown origin) using […] as substrate after 60 mins by TR-FRET assay
Cyclin-dependent kinase 1, sequence (P06493 whole entry): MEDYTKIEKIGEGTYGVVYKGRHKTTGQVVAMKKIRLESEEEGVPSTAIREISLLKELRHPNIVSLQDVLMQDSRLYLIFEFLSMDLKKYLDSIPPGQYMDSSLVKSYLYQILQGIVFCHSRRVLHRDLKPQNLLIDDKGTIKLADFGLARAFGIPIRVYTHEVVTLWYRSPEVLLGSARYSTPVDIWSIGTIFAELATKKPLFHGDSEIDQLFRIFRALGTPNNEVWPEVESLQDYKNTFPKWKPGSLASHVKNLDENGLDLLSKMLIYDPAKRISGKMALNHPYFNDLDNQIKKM

Aurora kinase A = Aurora kinase A (Homo sapiens, UniProt O14965); assay: Inhibition of Aurora A (unknown origin) using poly(Glu:Tyr) as substrate by ELISA-based method
[9] = Cytotoxicity against human HL60 cells; format: functional, cell-based; settings: HL-60
[10] = target: T1, Vascular endothelial growth factor receptor 2; assay: Inhibition of VEGFR2 (unknown origin) autophosphorylation after 2 hrs by cell-based assay

Activity [1] | Compound | IC50 (MCF7) | further results
-3% | O=C(Nc1ccc(Nc2ncnc3c2cnn3-c2ccccc2)cc1)Nc1cccc(Cl)c1 | 4.2 µM | inhibition [2]: inactive
-8% | O=C(Nc1ccccc1Cl)c1ccc(Nc2ncnc3c2cnn3-c2ccc(Cl)cc2)cc1 | > 100 µM | –
-3% | O=C(Nc1ccccc1)Nc1ccc(Oc2ncnc3c2cnn3-c2ccc(Cl)cc2)cc1 | 82.5 µM | –
-4% | O=C(NC1CCCCC1)c1ccc(Nc2ncnc3c2cnn3-c2ccc(Cl)cc2)cc1 | > 100 µM | –
1% | O=C(Nc1ccccc1)Nc1ccc(Oc2ncnc3c2cnn3-c2ccccc2)cc1 | > 100 µM | –
1% | O=C(Nc1ccc(Nc2ncnc3c2cnn3-c2ccc(Cl)cc2)cc1)Nc1ccccc1Cl | 9.05 µM | –
1% | O=c1sc2cc(Nc3ncnc4c3cnn4-c3ccc(Cl)cc3)ccc2n1Cc1ccc(Cl)cc1Cl | > 100 µM | –
-3% | O=C(Nc1ccc(Nc2ncnc3c2cnn3-c2ccccc2)cc1)Nc1cccc(Br)c1 | 36.3 µM | –
2% | O=C(Nc1cccc(Cl)c1)c1ccc(Nc2ncnc3c2cnn3-c2ccccc2)cc1 | 1.12 µM | inhibition [7]: inactive
-5% | O=C(Nc1ccc(Nc2ncnc3c2cnn3-c2ccccc2)cc1)Nc1ccccc1Cl | 55.1 µM | –
3% | Cc1ccccc1NC(=O)Nc1ccc(Nc2ncnc3c2cnn3-c2ccc(Cl)cc2)cc1 | 3.15 µM | –

Further lines, the molecule ahead of its results:

Compound | Activity [1] | IC50 (MCF7) | further results
O=C(Nc1ccc(Cl)c(C(F)(F)F)c1)c1ccc(Nc2ncnc3c2cnn3-c2ccc(Cl)cc2)cc1 | – | 4.92 µM | –
Clc1ccc(-n2ncc3c(Nc4nc5ccc(Cl)cc5s4)ncnc32)cc1 | – | 85.6 µM | –
O=C(Nc1ccc(Oc2ncnc3[nH]ncc23)cc1)Nc1ccc(Cl)c(C(F)(F)F)c1 | – | – | IC50 [3]: 2.25 µM; IC50 [4]: 0.004 µM
O=C(Nc1ccc(OC(F)(F)F)cc1)c1sccc1NCc1ccnc2ccccc12 [OSI-930] | – | – | IC50 [5]: 0.08 µM
Clc1ccc(COc2ccc(Nc3ncnc4c3cnn4-c3ccc(Cl)cc3)cc2)cc1 | – | > 100 µM | –
O=c1sc2cc(Nc3ncnc4c3cnn4-c3ccccc3)ccc2n1Cc1cccc(Br)c1 | 2% | 46.1 µM | –
Clc1ccc(COc2ccc(Nc3ncnc4c3cnn4-c3ccccc3)cc2)cc1 | – | 4.36 µM | –
O=C(Nc1ccc(Cl)c(C(F)(F)F)c1)c1ccc(Nc2ncnc3c2cnn3-c2ccccc2)cc1 | – | 75.9 µM | –
O=c1sc2cc(Nc3ncnc4c3cnn4-c3ccccc3)ccc2n1Cc1ccc(Cl)c(Cl)c1 | 1% | 1.6 µM | –
O=c1sc2cc(Nc3ncnc4c3cnn4-c3ccccc3)ccc2n1Cc1ccc(Cl)cc1Cl | -5% | 44 µM | –
Cc1cc(F)c(Nc2ncnc3cc(OCc4ccccc4)ccc23)cc1O | – | – | IC50 [6]: < 0.002 µM
Cc1cc2nc(Nc3ncnc4c3cnn4-c3ccccc3)sc2cc1C | – | > 100 µM | –
CC(C)n1ncc2cnc(Nc3cc(C(N)=O)n(C)c3)nc21 | – | – | IC50 [8]: 0.024 µM; IC50 (Aurora kinase A): 0.017 µM
N=c1c2cnn(-c3ccccc3)c2ncn1-c1ccc(-c2ccc(C(F)(F)F)cc2)s1 | – | – | IC50 [9]: 0.21 µM
Cc1ccc(C(=O)Nc2cccc(C(F)(F)F)c2)cc1Nc1nc(-c2cccnc2)nc2c1cnn2C | – | – | EC50 [10]: 4.2 µM
Clc1ccc2nc(Nc3ncnc4c3cnn4-c3ccccc3)sc2c1 | – | > 100 µM | –
